Measured values published in the supplement of paper PMC10307832.

These cell lines were tested with CN1CCN(CC1)C2=CC(=C(C=C2)NC3=NC(=C(S3)C(=O)C4=C(C=CC=C4Cl)Cl)N)OC [XMD14-99] + O=C(CCCCCCC(=O)Nc1ccccc1)NO [Vorinostat] (partner 1 µM) (assay: relative viability (nuclei count vs DMSO), 5 days (fraction); higher = more cells survive). Details: first compound 0.08 µM.
In short: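 After 5 days of treatment, lung cancer cells in 1536-well plates were fixed and stained in a single step (final 0.05% Triton X-100, 1% formaldehyde, 1 ug/ml Hoechst) and their nuclei counted on 4× images. Treatment had been applied by pin tool the day after seeding as one drug alone or as a fixed anchor-drug dose with five library-drug doses (not always all listed) in √10 steps. Relative viability is the nuclei count of treated wells divided by that of vehicle wells, and values are medians of duplicate plates.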

Row | Cell Line | relative viability
1 | IA-LM | 0.96
2 | LOU-NH91 | 0.947
3 | ChaGo-K-1 | 0.741
4 | NCI-H2170 | 0.784
5 | NCI-H3122 | 0.962
6 | HOP-62 | 0.668
7 | HCC-44 | 1.12
8 | SW 900 | 0.509
9 | LU99A | 0.53
10 | BEN | 0.591
11 | HARA | 0.537
12 | NCI-H1648 | 0.397
13 | HCC-78 | 0.404
14 | NCI-H441 | 0.823
15 | LCLC-97TM1 | 0.732
16 | NCI-H2023 | 0.572
17 | A-427 | 0.882

Same assay, conditions: first compound 0.8 µM

Row | Cell Line | relative viability
18 | NCI-H522 | 0.889
19 | NCI-H838 | 0.626
20 | NCI-H1650 | 0.558
21 | NCI-H2009 | 0.727
22 | NCI-H1993 | 0.889
23 | PC-14 | 0.628
24 | LCLC-103H | 0.798
25 | NCI-H596 | 0.645
26 | NCI-H2228 | 0.683
27 | EMC-BAC-2 | 0.585
28 | NCI-H2087 | 0.668
29 | HCC-366 | 0.324
30 | NCI-H1666 | 0.967
31 | NCI-H647 | 0.581
32 | LK-2 | 0.396
33 | NCI-H2126 | 0.806
34 | NCI-H2342 | 0.703
35 | SK-MES-1 | 1.08
36 | H3255 | 0.74

Row | Cell Line | relative viability
37 | COR-L23 | 0.415
38 | COR-L 105 | 0.944
39 | IA-LM | 0.728
40 | LOU-NH91 | 1.03
41 | ChaGo-K-1 | 0.73
42 | NCI-H2170 | 0.832
43 | NCI-H3122 | 0.991
44 | HOP-62 | 0.804
45 | HCC-44 | 1.1
46 | SW 900 | 0.667
47 | LU99A | 0.462
48 | BEN | 0.547
49 | HARA | 0.499
50 | NCI-H1648 | 0.287
51 | HCC-78 | 0.408
52 | NCI-H441 | 0.75
53 | LCLC-97TM1 | 0.661
54 | NCI-H2023 | 0.648
55 | A-427 | 0.832

Same assay, conditions: first compound 2.53 µM

Row | Cell Line | relative viability
56 | NCI-H522 | 0.757
57 | NCI-H838 | 0.577
58 | NCI-H1650 | 0.678
59 | NCI-H2009 | 0.63
60 | NCI-H1993 | 0.793
61 | PC-14 | 0.438
62 | LCLC-103H | 0.759
63 | NCI-H596 | 0.794
64 | NCI-H2228 | 0.727
65 | EMC-BAC-2 | 0.447
66 | NCI-H2087 | 0.864
67 | HCC-366 | 0.296
68 | NCI-H1666 | 0.947
69 | NCI-H647 | 0.648
70 | LK-2 | 0.548
71 | NCI-H2126 | 0.694
72 | NCI-H2342 | 0.872
73 | SK-MES-1 | 1.05
74 | H3255 | 0.717
75 | COR-L23 | 0.304
76 | COR-L 105 | 0.662
77 | IA-LM | 0.649
78 | LOU-NH91 | 0.805
79 | ChaGo-K-1 | 0.68
80 | NCI-H2170 | 0.741
